Series [1] can be described thus: Apparent permeability (Papp) across TC-7 cell monolayer. In kind it is in vitro ADME. The following applies: human, Caco-2; TC-7 cells, pH 6.5/7.4, average of two experiments. From the text:
The preferred route of administration for the compounds of the invention is oral, therefore the compound should have suitable permeability across the human intestinal epithelia to allow absorption into the circulation. However, also when the parenteral route is chosen for administration, an effective compound must be sufficiently permeable across biological membranes to reach the site/s of action. The permeability of compounds of formula (I) has been assessed in vitro using the apparent permeability coefficients approach (Papp) (Pharmacokinetics Optimization in Drug Research: biological, physicochemical and computational strategies; Bernard Testa, Han van de Waterbeemd, 2001, Wiley). The TC-7 clone was used instead of the Caco-2 cell line for this assessment, since it was reported that the two human intestinal epithelial cell lines are equivalent as far as drug transport characteristics are concerned and thus can be used interchangeably to predict absorption in humans after oral administration (MC Gres et al., Pharm. Res., 15, 5, 726-33, 1998); the experimental work was carried out as described in the mentioned literature.
(§1) Permeability and metabolic stability data are the average of two experiments.

Series [2] relates to PGE2 Synthesis. Put plainly: IL-1β induced PGE2 synthesis in chondrocyte culture (RIA). Format: cell-based, New Zealand white rabbits. The following applies: Oryctolagus cuniculus, rabbit articular chondrocytes, stimulation with 0.3 ng/mL of IL-1β, 24 h, read-out: PGE2 Synthesis inhibitory activity IC50. The method, then: (§2) Inhibitory effects of compounds of this invention were assessed according to the following in vitro assay:
(§3) Normal articular chondrocytes were obtained from young New Zealand white rabbits. Shoulders, femoral heads and knees were detached and transferred under a laminar flow hood. The articular cartilage was removed from the articular surfaces under sterile conditions. Tissue fragments were successively digested in an incubator (37°C, 5% CO2/95% air) with enzymes dissolved in DMEM plus 50 µg/ml gentamicin and sterile filtered. The three-step digestion was carried out with 0.05% testicular hyaluronidase for 15 min, followed by 0.25% trypsin for 30 min, and 0.2% clostridium collagenase for 90 min. At the end of the incubation period, chondrocyte suspension was two-fold diluted with DMEM plus 10% FCS, passed through a 200 µm and a 50 µm nylon sieves to remove debris and undigested matrix particles. […]
PGE2 released into the culture medium was determined with a RadioImmunoAssay (RIA) performed according to the instructions of the PGE2 antiserum manufacturer (Sigma). […] The supernatant was counted in 7 ml of Ultima-Gold MV® and the amount of radioactivity measured in a Packard Tricarb β-counter. […]

Series [3] in a line: Solubility in water. In kind it is physicochemical. The following applies: pH 7.4, aqueous buffer.
A short description of series [4]: Metabolic stability in dog liver S9 fraction. In kind it is in vitro ADME. As to conditions: dog liver S9, 1µM, average of two experiments.
Text: (§4) Metabolic stability for the compounds of the invention has been assessed using rat, dog and human liver S9 fractions, using the same methods as described in the literature (R Singh et al., Rapid Commun. Mass Spectrom., 10, 9, 1019-26, 1996).
as §1

A short description of series [5]: Metabolic stability in human liver S9 fraction. The following applies: human liver S9, 1µM, average of two experiments. In kind it is in vitro ADME.
Text: as §4, §1

Series [6] in a line: Metabolic stability in rat liver S9 fraction. As to conditions: rat liver S9, 1µM, average of two experiments. Format: in vitro ADME.
Text: as §4, §1

Series [7] relates to NO Synthesis. The experiment in a line: IL-1β induced NO synthesis in chondrocyte culture (nitrite, DAN fluorometric method). In kind it is cell-based, New Zealand white rabbits. The following applies: Oryctolagus cuniculus, rabbit articular chondrocytes, stimulation with 0.3 ng/mL of IL-1β, 24 h, read-out: NO Synthesis inhibitory activity IC50. How it is done: as §2
Normal articular chondrocytes were obtained from young New Zealand white rabbits. Shoulders, femoral heads and knees were detached and transferred under a laminar flow hood. The articular cartilage was removed from the articular surfaces under sterile conditions. Tissue fragments were successively digested in an incubator (37°C, 5% CO2/95% air) with enzymes dissolved in DMEM plus 50 µg/ml gentamicin and sterile filtered. The three-step digestion was carried out with 0.05% testicular hyaluronidase for 15 min, followed by 0.25% trypsin for 30 min, and 0.2% clostridium collagenase for 90 min. […]
NO production by chondrocytes was measured as nitrite, a stable end product and a reliable indicator of NO synthesis. Nitrites released in the culture supernatant were quantified with the fluorometric method according to Misko (Misko TP, Schilling RJ, Salvemini D, Moore WM, Currie MG. Anal Biochem; 214:11-16, 1993). […] The intensity of fluorescence was recorded in a 96-well plate (optiplate, Packard) with a plate reader (HTS7000 plus, Perkin Elmer) with excitation at 360 nm and emission read at 465 nm. Nitrite concentrations were calculated from a standard curve of sodium nitrite ranging from 10 to 100 ng/ml.

Series [8] relates to IL-1β induced GAG release. Put plainly: IL-1β induced GAG release in chondrocyte culture (DMB assay). Format: cell-based, New Zealand white rabbits. The following applies: Oryctolagus cuniculus, rabbit articular chondrocytes, stimulation with 0.3 ng/mL of IL-1β, 24 h, read-out: GAG Release inhibitory activity IC50. How it is done: as §2, §3
Proteoglycans associated to cell monolayer were quantified with Dimethylmethylene blue (DMB) assay. […] The absorbance was read within 20 min at 590 nm with a HTS7000plus plate reader. […] The optical density was measured at 590 nm using a plate reader HTS7000plus (Perkin Elmer).

In series [9] the test system is NO Synthesis. As to conditions: Human articular chondrocytes, IL-1β induced; Free Rad.Biol.Med. 33, 1097-1105, 2002; read-out: NO Synthesis inhibitory activity IC50; cited from earlier work.
Series [10] has as its system PGE2 Synthesis. As to conditions: Human articular chondrocytes, IL-1β induced; Free Rad.Biol.Med. 33, 1097-1105, 2002; read-out: PGE2 Synthesis inhibitory activity IC50; cited from earlier work.
The subject of series [11] is GAG Release. As to conditions: Human articular cartilage, IL-1β induced; JPET, 308, 767-773, 2004; read-out: GAG Release inhibitory activity IC50; cited from earlier work.
Series [12] concerns PGE2 Synthesis. The following applies: Human chondrocytes, IL-1β induced; Osteoarthritis and Cartilage, 2000, 8(6), 434; read-out: PGE2 Synthesis inhibitory activity IC50; cited from earlier work.
In series [13] the test system is NO Synthesis. As to conditions: Bovine articular cartilage, IL-1β induced; Osteoarthritis and Cartilage, 2000, 8(6), 434; read-out: NO Synthesis inhibitory activity IC50; cited from earlier work.

SMILES strings stand for the structures. Read-outs that look alike come from different tables or passages of the source. Where only a bound is given, the exact number is not on record here.

Consider `OC[C@@H](O)[C@@H](O)[C@H](O)c1cnc([C@@H](O)[C@H](O)[C@H](O)CO)cn1` [Compound 1.1, Bis-(1R, 1'R, 2S, 2'S, 3R, 3'R)-1,2,3,4-butanetetrol-1,1'-(2,5-pyrazinediyl)], for which the apparent permeability from apical to basolateral (Papp A→B) in [1] was 113 ×10⁻⁶ cm/s. In addition, the Papp B→A in [1] amounted to 72.9 ×10⁻⁶ cm/s. Also, the IC50 is 4 µM in series [2], 8 µM in series [7] and 46 µM in [8]. This molecule gave a solubility in [3] of at most 100 mM. In addition, the “In vitro metabolism Parent remaining (%) Test concentration 1µM Dog” value in [4] came to 96%. Moreover, the “In vitro metabolism Parent remaining (%) Test concentration 1µM Human” value in series [5] worked out at 108%. In addition, the “In vitro metabolism Parent remaining (%) Test concentration 1µM Rat” value in [6] was 110%.
For `O=C(O[C@@H]1Cc2c(O)cc(O)cc2O[C@@H]1c1cc(O)c(O)c(O)c1)c1cc(O)c(O)c(O)c1` [EGCG, epigallocatechin gallate], the IC50 in series [9] was about 200 µM; in series [10], over 200 µM; in series [11] it was about 100 µM.
`COc1nccc(-c2c(-c3ccc(F)cc3)ncn2C2CCNCC2)n1` [SB-242235]: the IC50 was 1 to 3 µM in [12] and 1 µM in series [13].

The term Papp A→B denotes the apparent permeability from the apical to the basolateral side of a cell layer. As usually defined, the Papp B→A is the apparent permeability from the basolateral to the apical side of a cell layer. For orientation: IC50 means the point on the concentration scale where inhibition reaches its midpoint. As a reminder, the solubility is the concentration that dissolves in the medium under given conditions. Low values mean a poorly soluble substance, high ones a readily soluble substance.

The values are drawn from patent EP1704862A1, “2,5-bis(tetrahydroxybutyl)pyrazines for the treatment of osteoarthritis and rheumatoid arthritis” (ROTTAPHARM S.P.A., priority 2005, dated 2006).
